How the values were obtained:
[1] = tested on: E. coli BT3(ΔPPO) transformed with Myxococcus xanthus MxPPO (SEQ ID NO: 3) variant A170C; assay: Herbicide tolerance test in PPO-deficient E. coli BT3(ΔPPO), growth on plates; type: cell-based; settings: Table 9, light, tiafenacil to 2000 μM, saflufenacil to 200 μM, flumioxazin to 100 μM
Procedure: (§1) The mutated CyPPO gene obtained from the Example 2 was transformed to BT3 (ΔPPO) strain which is deficient of PPO activity and cultured in LB media with PPO-inhibiting herbicide, thereby examining whether growth of transformed BT3 was not inhibited.
(§2) BT3 competent cells were transformed with the pET303-ApPPO1 and pET303-MxPPO plasmids and those with a mutation(s) constructed in Example 2 respectively, and were cultured in LB agar media containing carbenicillin (Gold Biotechnology, Co., Ltd.).
(§3) Single colony of E. coli transformed with each CyPPO gene was cultured in 3 ml of LB broth containing carbenicillin overnight, and then was subcultured until absorbance (OD600) reached 0.5 to 1. Then, it was diluted with LB broth to OD600=0.5. Again, the diluted solution was serially diluted 4 times by a factor of one tenth.
(§4) The LB agar media (LB 25 g/l, Bacto agar 15 g/l) containing carbenicillin (100 μg/ml) and 0 to 4,000 μM of various herbicides dissolved in DMSO was prepared. Next, 10 μl of each diluted solution was dropped on the plate and cultured at 37° C. under light (Tables 7, 9 and 10, FIGS. 2 to 6, 13 to 20) or dark (Tables 8 and 11, FIGS. 7 to 12, 21 to 24) for 16 to 20 hours. Then, the extent of tolerance was evaluated.
(§5) The extent of herbicide tolerance of the ApPPO1 or MxPPO mutated genes was evaluated by comparing that of mutated genes with that of ApPPO1 or MxPPO wild type. […]

[2] = tested on: E. coli BT3(ΔPPO) transformed with Myxococcus xanthus MxPPO (SEQ ID NO: 3) variant M365L; assay: as above; type: cell-based; settings: Table 9, light, tiafenacil to 2000 μM, saflufenacil to 200 μM, flumioxazin to 100 μM
Procedure: as §1, §2, §3, §4, §5

[3] = tested on: E. coli BT3(ΔPPO) transformed with Auxenochlorella protothecoides ApPPO1 (SEQ ID NO: 1) variant A215C (AC); assay: as above; type: cell-based; settings: Table 7, light, 37° C., 16 to 20 hours, vs wild type at highest herbicide concentration
Procedure: as §1, §2, §3, §4
(§6) The extent of herbicide tolerance of the ApPPO1 or MxPPO mutated genes was evaluated by comparing that of mutated genes with that of ApPPO1 or MxPPO wild type. The relative tolerance was represented with “+” as a factor of 10 times.
(§7) In Tables 7 to 11, tolerance level was presented as ‘−’ of tolerance of wild type and of variants equivalent to that of wild type, and was done as ‘+’ per each 10 fold resistance until ‘+++++’ as maximal resistance. […] A dilution series (OD600=0.5, 0.05, 0.005, 0.0005, 0.00005) was made and spotted on LB agar plates supplemented with herbicides.

[4] = tested on: E. coli BT3(ΔPPO) transformed with Myxococcus xanthus MxPPO (SEQ ID NO: 3) variant M365I; assay: as above; type: cell-based; settings: Table 9, light, tiafenacil to 2000 μM, saflufenacil to 200 μM, flumioxazin to 100 μM
Procedure: as §1, §2, §3, §4, §5

[5] = target: T1, Myxococcus xanthus MxPPO (SEQ ID NO: 3) variant A170L, fused to MBP (Myxococcus xanthus, UniProt P56601, A170L); assay: biochemical
T1 construct: made in house; host or cells: BL21 CodonPlus(DE3) E. coli
Procedure: (§8) Thus, PPO proteins of wild type and variants were expressed as fused to MBP and were used for experiments.
(§9) In order to express wild type and variant proteins of ApPPO1 and MxPPO, those genes were introduced into pMAL-c2x vector (refer to FIG. 25), respectively.
(§10) The following process for purification of PPO protein was performed in a 4° C. cold room. […] The column was washed with 3 column volumes of buffer and the presence of protein in the washing solution was examined. When the protein was no longer detected, the washing procedure was terminated. Then, the MBP-PPO protein was eluted with approximately 2 column volumes of buffer containing 20 mM maltose. The protein concentration of each eluent was determined and the elution was stopped when the protein was no longer detected. Ten microliter of each fraction was investigated for protein quantification and SDS-PAGE analysis. […]
(§11) Hundred and eighty microliters of a reaction mixture containing the purified PPO protein were placed in 96 well plates and 20 μl of purified PPO proteins were added. […] The reaction proceeded at room temperature for 30 min and the fluorescence of protoporphyrin IX was measured using Microplate reader (Sense, Hidex) (excitation: 405 nm; emission: 633 nm). […] To this, 2.7 N HCl was added, and the absorbance at 408 nm was measured. […]

[6] = tested on: E. coli BT3(ΔPPO) transformed with Myxococcus xanthus MxPPO (SEQ ID NO: 3) variant M365V; assay: Herbicide tolerance test in PPO-deficient E. coli BT3(ΔPPO), growth on plates; type: cell-based; settings: Table 9, light, tiafenacil to 2000 μM, saflufenacil to 200 μM, flumioxazin to 100 μM
Procedure: as §1, §2, §3, §4, §5

[7] = target: Auxenochlorella protothecoides ApPPO1 (SEQ ID NO: 1) variant V213C, fused to MBP (Auxenochlorella protothecoides, UniProt A0A087SQM0, V213C); assay: biochemical
Procedure: as §8, §10
Hundred and eighty microliters of a reaction mixture containing the purified PPO protein were placed in 96 well plates and 20 μl of purified PPO proteins were added. […] The reaction proceeded at room temperature for 30 min and the fluorescence of protoporphyrin IX was measured using Microplate reader (Sense, Hidex) (excitation: 405 nm; emission: 633 nm). […] To this, 2.7 N HCl was added, and the absorbance at 408 nm was measured. A standard curve was generated using standard protoporphyrin IX, and PPO activity was measured by calibration of protoporphyrin IX using the standard curve of protoporphyrin IX.

[8] = tested on: E. coli BT3(ΔPPO) transformed with Myxococcus xanthus MxPPO (SEQ ID NO: 3) variant I311M; assay: Herbicide tolerance test in PPO-deficient E. coli BT3(ΔPPO), growth on plates; type: cell-based; settings: Table 9, light, tiafenacil to 2000 μM, saflufenacil to 200 μM, flumioxazin to 100 μM
Procedure: as §1, §2, §3, §4, §5

[9] = target: T2, Myxococcus xanthus MxPPO (SEQ ID NO: 3) variant L332T, fused to MBP (Myxococcus xanthus, UniProt P56601, L332T); assay: PPO enzyme inhibition assay (IC50), MBP-fused PPO (Table 15); type: biochemical
T2 construct: made in house; host or cells: BL21 CodonPlus(DE3) E. coli
Procedure: as §8, §9, §10, §11

[10] = tested on: transgenic A. thaliana transformed with ApPPO1 variants, MxPPO or MxPPO variants; assay: Herbicide spray test on 4-week-old plants, transgenic; type: in vivo, Arabidopsis thaliana; settings: 100 ml of 1 μM tiafenacil and 0.05% Silwet L-77 per 0.24 m^2
Source text: A. thaliana was transformed with a binary vector having ORF of a selectable marker, Bar gene (glufosinate-tolerant gene), and ORF of each gene of ApPPO1 variants, MxPPO, and MxPPO variants. The transgenic plant was examined for cross-tolerance towards glufosinate and PPO-inhibiting herbicides. The bar gene was also used to examine whether the transgene was stably inherited during generations. NOS promoter and E9 terminator were used for bar gene expression.
In order to express proteins of ApPPO1 variants, MxPPO, and MxPPO variants in plants, a CaMV35S promoter and a NOS terminator were used. Encoding genes of ApPPO1 variants, MxPPO, and MxPPO variants were introduced into binary vector using XhoI and BamHI restriction enzymes. Furthermore, for confirmation of the protein expression, hemagglutinin (HA) tag was fused to the C-terminal region of PPO protein coding gene using BamHI and SacI restriction enzymes. […]
Each transformed Agrobacterium was screened in spectinomycin-containing LB media. […] After Agrobacterium cell was harvested from the culture media, it was resuspended in the solution containing 5% sucrose (w/v) and 0.05% Silwet L-77 (v/v) (Momentive Performance Materials Co., Ltd.) at an absorbance (OD600) of 0.8. […]

[11] = tested on: E. coli BT3(ΔPPO) transformed with Myxococcus xanthus MxPPO (SEQ ID NO: 3) variant A170L; assay: Herbicide tolerance test in PPO-deficient E. coli BT3(ΔPPO), growth on plates; type: cell-based; settings: Table 9, light, tiafenacil to 2000 μM, saflufenacil to 200 μM, flumioxazin to 100 μM
Procedure: as §1, §2, §3, §4, §5

[12] = target: T3, Myxococcus xanthus MxPPO (SEQ ID NO: 3) variant I311M, fused to MBP (Myxococcus xanthus, UniProt P56601, I311M); assay: biochemical
T3 construct: made in house; host or cells: BL21 CodonPlus(DE3) E. coli
Procedure: as §8, §9, §10, §11

[13] = tested on: E. coli BT3(ΔPPO) transformed with Auxenochlorella protothecoides ApPPO1 (SEQ ID NO: 1) variant Y422M (YM); assay: Herbicide tolerance test in PPO-deficient E. coli BT3(ΔPPO), growth on plates; type: cell-based; settings: Table 7, light, 37° C., 16 to 20 hours, vs wild type at highest herbicide concentration
Procedure: as §1, §2, §3, §4, §6, §7

T2 sequence (P56601 whole entry L332T, the tested form may be a part): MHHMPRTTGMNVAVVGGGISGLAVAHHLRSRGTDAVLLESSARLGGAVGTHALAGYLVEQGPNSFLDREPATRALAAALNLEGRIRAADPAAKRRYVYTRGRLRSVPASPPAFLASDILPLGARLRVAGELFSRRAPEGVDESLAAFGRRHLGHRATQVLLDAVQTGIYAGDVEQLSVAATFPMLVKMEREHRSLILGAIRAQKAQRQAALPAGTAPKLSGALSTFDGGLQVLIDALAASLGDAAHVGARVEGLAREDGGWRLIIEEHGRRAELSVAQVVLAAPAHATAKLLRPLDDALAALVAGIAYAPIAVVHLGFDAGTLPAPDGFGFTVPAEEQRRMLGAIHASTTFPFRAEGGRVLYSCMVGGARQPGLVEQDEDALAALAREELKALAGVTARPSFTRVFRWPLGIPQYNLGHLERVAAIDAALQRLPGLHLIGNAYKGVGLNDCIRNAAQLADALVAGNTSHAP
T3 sequence (P56601 whole entry I311M, the tested form may be a part): as the sequence (P56601 whole entry L332T, the tested form may be a part) above, with I311M, T332L counted along it
T1 sequence (P56601 whole entry A170L, the tested form may be a part): as the sequence (P56601 whole entry L332T, the tested form may be a part) above, with A170L, T332L counted along it
Sequence of Auxenochlorella protothecoides ApPPO1 (SEQ ID NO: 1) variant V213C, fused to MBP (A0A087SQM0 entry or part of it V213C): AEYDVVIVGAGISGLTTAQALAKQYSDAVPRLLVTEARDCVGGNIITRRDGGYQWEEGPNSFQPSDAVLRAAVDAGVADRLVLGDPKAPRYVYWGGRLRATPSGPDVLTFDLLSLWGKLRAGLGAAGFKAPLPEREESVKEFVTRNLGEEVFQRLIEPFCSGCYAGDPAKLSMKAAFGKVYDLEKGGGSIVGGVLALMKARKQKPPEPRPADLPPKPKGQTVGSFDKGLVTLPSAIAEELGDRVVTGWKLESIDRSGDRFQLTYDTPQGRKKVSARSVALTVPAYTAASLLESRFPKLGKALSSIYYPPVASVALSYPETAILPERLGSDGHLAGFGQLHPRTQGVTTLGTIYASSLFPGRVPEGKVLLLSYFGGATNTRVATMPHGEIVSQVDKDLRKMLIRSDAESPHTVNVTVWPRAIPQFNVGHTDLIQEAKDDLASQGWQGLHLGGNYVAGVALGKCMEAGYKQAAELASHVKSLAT

## COC(=O)CCNC(=O)C(C)Sc1cc(-n2c(=O)cc(C(F)(F)F)n(C)c2=O)c(F)cc1Cl (stereo not shown) [tiafenacil]
[1]
  relative herbicide tolerance level: + (1-9 fold higher tolerance)
[2]
  relative herbicide tolerance level: + (1-9 fold higher tolerance)
[3]
  relative herbicide tolerance level: + (1-9 fold higher tolerance)
[4]
  relative herbicide tolerance level: + (1-9 fold higher tolerance)
[5]
  IC50: > 5000 nM
[6]
  relative herbicide tolerance level: + (1-9 fold higher tolerance)
[7]
  IC50: 81 nM
[8]
  relative herbicide tolerance level: ++ (10-99 fold higher tolerance)
[9]
  IC50: 1010 nM
[10]
  plant damage after spraying: no damage
[11]
  relative herbicide tolerance level: + (1-9 fold higher tolerance)
[12]
  IC50: 964 nM
[13]
  relative herbicide tolerance level: +++ (100-999 fold higher tolerance)

Reference: patent publication US20220042033A1, “COMPOSITION AND METHOD FOR CONFERRING AND/OR ENHANCING TOLERANCE AGAINST HERBICIDES BY USING VARIANTS OF PPO” (FarmHannong Co., Ltd., priority 2017, published 2022)
